Patent publication US20150181881A1, “METHODS FOR CONTROLLING FUNGAL DISEASES IN MUSHROOM PRODUCTION” (DSM IP ASSETS B.V., priority 2012, published 2015)

Key:
Verticillium fungicola = test: In vitro antifungal activity in 96-well microtiter plates against Verticillium fungicola; format: cell-based
Method: The following compositions are tested: • Control (no active ingredient), • 1.25 or 2.5 ppm natamycin (DSM Food Specialties, Delft, The Netherlands), • 0.5 ppm chlorothalonil, • 1.25 ppm natamycin+0.5 ppm chlorothalonil, • 2.5 ppm natamycin+0.5 ppm chlorothalonil. […] Subsequently, 100 μl of a Verticillium fungicola suspension prepared in PCB medium is used to inoculate each well with 5.0×10^3 spores/ml. […] After incubation of the microtiter plates for 3 and 5 days at 25° C., the in vitro antifungal activity (%) of the individual active ingredients was assessed by calculating the reduction in mould growth observed in the presence of the active ingredient in comparison to the mould growth observed in the absence of the active ingredient. The expected antifungal activity (E in %) of the active ingredient combination was calculated according to the Colby equation (Colby, 1967): […] wherein X and Y are the observed antifungal activities (in %) of the individual active ingredients X and Y, respectively.

Trichoderma harzianum = test: In vitro antifungal activity in 96-well microtiter plates against Trichoderma harzianum; format: cell-based
Method: Subsequently, 100 μl of a Verticillium fungicola suspension prepared in PCB medium is used to inoculate each well with 5.0×10^3 spores/ml.
, the in vitro antifungal activity (%) of the individual active ingredients was assessed by calculating the reduction in mould growth observed in the presence of the active ingredient in comparison to the mould growth observed in the absence of the active ingredient. The expected antifungal activity (E in %) of the active ingredient combination was calculated according to the Colby equation (Colby, 1967): […]
wherein X and Y are the observed antifungal activities (in %) of the individual active ingredients X and Y, respectively. If the observed antifungal activity (O in %) of the combination exceeds the expected antifungal activity (E in %) of the combination and the resulting synergy factor O/E is thus >1.0, the combined application of the active ingredients leads to a synergistic antifungal effect.
Furthermore, Trichoderma harzianum was used for inoculation.

[1] = Chlorothalonil 0.5 ppm, incubation 5 days at 25° C.

Measured: Observed antifungal activity O (%)

N#Cc1c(Cl)c(Cl)c(Cl)c(C#N)c1Cl [Chlorothalonil, 2,4,5,6-tetrachloroisophthalonitrile]
0%: Verticillium fungicola; Chlorothalonil 0.5 ppm, incubation 3 days at 25° C. | Verticillium fungicola; [1] | Trichoderma harzianum; [1] | Trichoderma harzianum; Chlorothalonil 1.0 ppm, incubation 10 days at 25° C. | Trichoderma harzianum; Chlorothalonil 1.0 ppm, incubation 17 days at 25° C. | Trichoderma harzianum; Chlorothalonil 1.5 ppm, incubation 17 days at 25° C.

C[C@@H]1C/C=C/C=C/C=C/C=C/[C@H](O[C@@H]2O[C@H](C)[C@@H](O)[C@H](N)[C@@H]2O)C[C@@H]2O[C@](O)(C[C@@H](O)C[C@H]3O[C@@H]3/C=C/C(=O)O1)C[C@H](O)[C@H]2C(=O)O [Natamycin, natamycin]
0%: Verticillium fungicola; Natamycin 1.25 ppm, incubation 3 days at 25° C. | Verticillium fungicola; Natamycin 2.5 ppm, incubation 5 days at 25° C. | Trichoderma harzianum; Natamycin 1.25 ppm, incubation 5 days at 25° C. | Trichoderma harzianum; Natamycin 1.25 ppm, incubation 10 days at 25° C. | Trichoderma harzianum; Natamycin 1.25 ppm, incubation 17 days at 25° C. | Trichoderma harzianum; Natamycin 2.5 ppm, incubation 17 days at 25° C.
